Tests used:
[1] = test system: DENV2; assay: DENV2 progeny virus titer in BHK-21 supernatant (TCID50 assay); type: cell-based; conditions: Dengue virus, DENV2, BHK-21, read-out: IC50 of viral titer reduction (called TCID50 in the source)
Protocol: (§1) To this end, we assessed the antiviral activity of shortlisted compounds by evaluating their ability to inhibit progeny virus production. BHK-21 cells were infected with DENV2 and JEV (MOI: 0.1) in the presence of different concentrations of 3aq or 3au or with DMSO, and viral titer was determined in the supernatants harvested at 18 hpi. Compound 3aq caused the maximum reduction of viral titer showing TCID50 of 5.18 ± 0.87 and 2.29 ± 0.50 µM against DENV2 and JEV, respectively (Fig. 8B and D).
(§2) During DENV2 and JEV infection, the viral supernatant was collected and used in the TCID50 assay to determine the viral titer. Then, 3 × 10^4 BHK-21 cells per well were seeded in a 96-well cell culture microtiter plate the day before titration. The virus stock was diluted with infection media (DMEM + 2% FBS) to attain virus dilutions of 1 × 10^−2 to 6.4 × 10^−7 in 12 parallels, with the last column of the 96-well plate serving as virus-free cell control. On the day of the assay, when the cell had reached 90%–95% confluency, the growth medium was aspirated using a multichannel pipette, and 100 µL of virus inoculum of different dilutions was transferred to each well, keeping the last well only in infection media without virus. The cells were then incubated at 37 °C in a humidified 5% CO2 chamber. […] TCID50 was calculated using the Spearman and Karber methods.

[2] = target: T1, DENV2 NS2B–NS3 protease (Dengue virus type 2, UniProt P14340); assay: In vitro DENV2 NS2B/NS3pro inhibition assay using a FRET substrate; type: biochemical; conditions: IC50 (µM), DENV protease inhibitory activity, 5 µM substrate, 10 nM NS2b-NS3pro, compounds at 1, 10 and 100 µM, 1 h at RT; compounds 3ao–3av
T1 construct: Activity of recombinant dengue 2 virus NS3 protease in the presence of a truncated NS2B co-factor; The N-terminal domain of NS3 contains a highly conserved protease-active core; made in house; host or cells: Escherichia coli BL21(DE3)
T1 sequence (P14340 1476-1653): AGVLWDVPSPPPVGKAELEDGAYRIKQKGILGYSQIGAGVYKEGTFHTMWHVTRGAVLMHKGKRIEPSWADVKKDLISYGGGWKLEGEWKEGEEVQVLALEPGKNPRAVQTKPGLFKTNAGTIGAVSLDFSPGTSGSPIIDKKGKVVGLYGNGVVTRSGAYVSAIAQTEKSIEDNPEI
T1 sequence (P14340 1398-1437): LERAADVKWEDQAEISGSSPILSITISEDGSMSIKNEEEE
Protocol: To assess the anti-DENV NS2B–NS3 activity of the compounds, we expressed the DENV2 NS2B–NS3 protease in BL21DE3 cells and subsequently purified it using Ni-NTA affinity chromatography, as outlined in Materials and Methods ([39], [40]). The protease activity assay was performed using different concentrations (1, 2.5, 5, 10, 25, 50, 75, and 100 µM) of a fluorogenic substrate (Abs-Nle-Lys-Arg-Arg-Ser-3-(NO2)Tyr) at various time points (5, 15, 30, 45, and 60 min), as described previously ([39], [41]). […] Therefore, all subsequent assays were conducted with a 1 h incubation time.
The selected compounds were analyzed using in vitro protease assays performed in black 96-well plates. […] All assays were performed in triplicate. The release of free AMC was measured using a Varioskan LUX multimode microplate reader (Thermo Fisher Scientific) at excitation and emission wavelengths of 380 and 460 nm, respectively. Control fluorescence values obtained in the absence of inhibitors were considered 100%, and those obtained in the presence of inhibitors were calculated as the percentage of inhibition of the control using Microsoft Excel and plotted using Origin Pro 2023b. The background AMC in the absence of protease was subtracted before data analysis. Further, protease assay was done using different concentration of the compounds (1, 10, and 100 µM) to evaluate the IC50 for the in vitro assay. IC50 curves were fitted and determined by fitting the nonlinear equation in Origin2023b software. A similar approach was used to analyze the enzymatic kinetics of protease inhibition. The reaction progress was monitored by the release of free aminomethylcoumarin (AMC), as previously described. The substrate was incubated with or without the inhibitor in the aforementioned reaction buffer in the presence of varying concentrations of the substrate. The reactions were initiated by the addition of the NS2B–NS3 protease. Protease activity was monitored for 1 h based on the initial rate of increase in fluorescence intensity at 460 nm, with an excitation wavelength of 380 nm. The results were analyzed using Origin Pro 2023b and the Michaelis–Menten equation to obtain the apparent Michaelis–Menten constants and maximal velocities. All assays were performed in triplicate. For each tested compound, two different concentrations of the inhibitor (0, 10, and 25 µM) were used at various concentrations (0–250 μM) of the substrate. The mechanism of inhibition was determined by observing the deviations in the apparent Km and Vmax values.

[3] = test system: JEV; assay: Time of drug addition assay, JEV in BHK-21 cells; type: cell-based; conditions: JEV MOI 0.1, BHK-21, 10 µM, viral RNA at 24 hpi
Protocol: Considering the mode of action of the compounds 3au and 3aq, they should satisfy this criteria. To evaluate this potential, time of addition experiment was conducted for both compounds to inhibit JEV infection. BHK-21 cells and the virus were pre-treated for 3 h with 10 µM of compounds followed by infection and subsequent incubation in presence of the same (pre + during + post). Alternatively, the compounds (10 µM) were added either during the infection (during + post) or at different times post-infection as indicated (Fig. 9C and D). Virus amplification was measured at 24 hpi by measuring viral RNA accumulation as described above. […] This sustained inhibition indicates a potential therapeutic window for intervention, highlighting the compounds' ability to impede viral replication after initial infection. […] Together, our data not only established the antiviral activity of the compounds against DENV2 and JEV but also pointed out the mechanism of action of these compounds during the specific steps of the virus life cycle.
BHK-21 cells were seeded in a 12-well cell culture plate at a density of (0.5 × 10^6 cells/well). Upon 85%–90% confluency, cells were infected with JEV virus at an MOI of 0.1. Cells were incubated for 1.5 h at 37 °C. […] Cells were harvested at 24 hpi, and the viral genomic RNA levels were quantified using qRT-PCR.

[4] = test system: JEV; assay: JEV progeny virus titer in BHK-21 supernatant (TCID50 assay); type: cell-based; conditions: BHK-21, read-out: IC50 of viral titer reduction (called TCID50 in the source)
Protocol: as §1, §2

Row | Compound | IC50 [1] [µM] | IC50 [2] [µM] | inhibition of viral replication by time of addition [3] | IC50 [4] [µM]
1 | COc1ccc(-c2csc(N/N=C(\C)c3cc(O)cc(O)c3)n2)cc1 [3au] | 7.58 ± 1.02 | 20.8 | significantly inhibited viral replication even when added at 9 hpi | 2.72 ± 0.24
2 | COc1ccc(-c2csc(N/N=C(\C)c3ccc(O)cc3)n2)cc1 [3aq] | 5.18 ± 0.87 | 15.1 | significantly inhibited viral replication even when added at 9 hpi | 2.29 ± 0.5
